Assay results taken from patent publication US10597388B2, “Pyridazinone herbicides” (FMC CORPORATION, priority 2014, dated 2020).

How the values were obtained:
Format in all cases: in vivo
[1] = system: galium (catchweed bedstraw, Galium aparine); experiment: Test A greenhouse herbicide test, postemergence
Outline: (§1)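 Pot-grown plants (loam soil/sand blend), 2–10 cm tall at the one- to two-leaf stage, received postemergence sprays of formulated test chemical. After about 10 d in the greenhouse, injury was rated visually against untreated controls on a 0 (no effect) to 100 (complete control) scale.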

[2] = system: blackgrass (Alopecurus myosuroides); experiment: Test A greenhouse herbicide test, postemergence
Outline: as §1

[3] = system: barnyardgrass (Echinochloa crus-galli); experiment: Test A greenhouse herbicide test, pre- and postemergence
Outline: (§2)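 Seeds in loam–sand blend received a preemergence directed soil spray; plants at 2–10 cm, one- to two-leaf stage, received postemergence sprays. Compounds in a non-phytotoxic solvent with surfactant. After about 10 d in a greenhouse, injury rated visually versus untreated controls on a 0–100 scale (100 = complete control).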

corn (Zea mays) = experiment: as above; conditions: Postemergence
Outline: as §2

[4] = system: ryegrass, Italian (Italian ryegrass, Lolium multiflorum); experiment: as above
Outline: as §2

kochia (Kochia scoparia) = experiment: as above
Outline: as §2

[5] = system: pigweed (Amaranthus retroflexus); experiment: as above
Outline: as §2

[6] = system: wheat (Triticum aestivum); experiment: as above; conditions: Postemergence
Outline: as §2

[7] = system: foxtail, giant (giant foxtail, Setaria faberii); experiment: as above
Outline: as §2

[8] = system: ragweed (common ragweed, Ambrosia elatior); experiment: as above
Outline: as §2

[9] = system: barnyardgrass (Echinochloa crus-galli); experiment: Test B flooded paddy test; conditions: 250 g ai/ha, Flood; visual rating on scale of 0 to 100 where 0 is no effect and 100 is complete control; 13 to 15 d after treatment
Outline: (§3)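 Plants grown to the 2-leaf stage. At treatment, pots were flooded to 3 cm above the soil, compound was applied directly to the paddy water, and that depth was held throughout. After 13 to 15 d in the greenhouse, response was rated visually against controls on a 0 (no effect) to 100 (complete control) scale.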

[10] = system: ducksalad (Heteranthera limosa); experiment: Test B flooded paddy test; conditions: 250 g ai/ha, Flood; visual rating on scale of 0 to 100 where 0 is no effect and 100 is complete control; 13 to 15 d after treatment
Outline: as §3

[11] = system: sedge, umbrella (small-flower umbrella sedge, Cyperus difformis); experiment: Test B flooded paddy test; conditions: 250 g ai/ha, Flood; visual rating on scale of 0 to 100 where 0 is no effect and 100 is complete control; 13 to 15 d after treatment
Outline: as §3

rice (Oryza sativa) = experiment: Test B flooded paddy test; conditions: 250 g ai/ha, Flood; visual rating on scale of 0 to 100 where 0 is no effect and 100 is complete control; 13 to 15 d after treatment
Outline: as §3

[12] = 125 g ai/ha, 0 to 100 scale, 0 no effect, 100 complete control
[13] = 500 g ai/ha, visual rating after approx. 10 d, 0 to 100 scale (0 no effect, 100 complete control)
[14] = Postemergence, 125 g ai/ha, 0 to 100 scale, 0 no effect, 100 complete control
[15] = Postemergence, 500 g ai/ha, visual rating after approx. 10 d, 0 to 100 scale (0 no effect, 100 complete control)
[16] = Preemergence, 125 g ai/ha, visual injury rating, 0 to 100 scale (0 no effect, 100 complete control), approx. 10 d
[17] = Preemergence, 500 g ai/ha, 0 to 100 scale where 0 is no effect and 100 is complete control
[18] = 125 g ai/ha, 0 to 100 scale where 0 is no effect and 100 is complete control
[19] = Postemergence, 125 g ai/ha, 0 to 100 scale where 0 is no effect and 100 is complete control
[20] = Preemergence, 125 g ai/ha, 0 to 100 scale where 0 is no effect and 100 is complete control

Row | Compound | Plant response rating, Galium [1, 13] | Plant response rating, Blackgrass [2, 13] | Plant response rating, Barnyardgrass [3, 15] | Plant response rating, Barnyardgrass [3, 17] | Plant response rating, Corn (corn (Zea mays); [13]) | Plant response rating, Ryegrass, Italian [4, 15] | Plant response rating, Ryegrass, Italian [4, 17] | Plant response rating, Kochia (kochia (Kochia scoparia); [15]) | Plant response rating, Kochia (kochia (Kochia scoparia); [17]) | Plant response rating, Pigweed [5, 15] | Plant response rating, Pigweed [5, 17] | Plant response rating, Wheat [6, 13] | Plant response rating, Foxtail, Giant [7, 15] | Plant response rating, Foxtail, Giant [7, 17] | Plant response rating, Ragweed [8, 15] | Plant response rating, Ragweed [8, 17] | Plant response rating, Barnyardgrass [9] | Plant response rating, Ducksalad [10] | Plant response rating, Sedge, Umbrella [11] | Plant response rating, Rice (rice (Oryza sativa)) | further results
1 | Cc1nn(C)c(=O)c(-c2c([N+](=O)[O-])ccc3ccccc23)c1OC(=O)C1CC1 [Compound 167] | 90 | 40 | 20 | 20 | 20 | 80 | 100 | 70 | 100 | 80 | 100 | 0 | 40 | 20 | 70 | 80 | 0 | 0 | 0 | 0 | Plant response rating, Galium [1, 12]: 70; Plant response rating, Blackgrass [2, 12]: 20; Plant response rating, Barnyardgrass [3, 14]: 20; Plant response rating, Barnyardgrass [3, 16]: 10; Plant response rating, Corn (corn (Zea mays); [12]): 0; Plant response rating, Ryegrass, Italian [4, 14]: 70; Plant response rating, Ryegrass, Italian [4, 16]: 80; Plant response rating, Kochia (kochia (Kochia scoparia); [14]): 50; Plant response rating, Kochia (kochia (Kochia scoparia); [16]): 60; Plant response rating, Pigweed [5, 14]: 70; Plant response rating, Pigweed [5, 16]: 100; Plant response rating, Wheat [6, 12]: 0; Plant response rating, Foxtail, Giant [7, 14]: 20; Plant response rating, Foxtail, Giant [7, 16]: 10; Plant response rating, Ragweed [8, 14]: 60; Plant response rating, Ragweed [8, 16]: 70
2 | CCC(=O)Oc1c(Br)nn(C)c(=O)c1-c1c(C)ccc2ccccc12 [Compound 156] | 100 | 90 | 90 | 100 | 30 | 100 | 100 | 100 | 100 | 100 | 100 | 60 | 90 | 90 | 100 | 90 | 0 | 60 | 75 | 0 | Plant response rating, Galium [1, 12]: 100; Plant response rating, Blackgrass [2, 12]: 60; Plant response rating, Barnyardgrass [3, 14]: 70; Plant response rating, Barnyardgrass [3, 16]: 70; Plant response rating, Corn (corn (Zea mays); [12]): 0; Plant response rating, Ryegrass, Italian [4, 14]: 90; Plant response rating, Ryegrass, Italian [4, 16]: 90; Plant response rating, Kochia (kochia (Kochia scoparia); [14]): 80; Plant response rating, Kochia (kochia (Kochia scoparia); [16]): 50; Plant response rating, Pigweed [5, 14]: 90; Plant response rating, Pigweed [5, 16]: 100; Plant response rating, Wheat [6, 12]: 30; Plant response rating, Foxtail, Giant [7, 14]: 90; Plant response rating, Foxtail, Giant [7, 16]: 80; Plant response rating, Ragweed [8, 14]: 90; Plant response rating, Ragweed [8, 16]: 90
3 | CCOC(=O)Oc1c(C)nn(C)c(=O)c1-c1c([N+](=O)[O-])ccc2ccccc12 [Compound 166] | 90 | 30 | 20 | 10 | 20 | 90 | 90 | 70 | 90 | 80 | 90 | 20 | 40 | 30 | 70 | 90 | 0 | 0 | 0 | 0 | Plant response rating, Galium [1, 12]: 70; Plant response rating, Blackgrass [2, 12]: 10; Plant response rating, Barnyardgrass [3, 14]: 10; Plant response rating, Barnyardgrass [3, 16]: 10; Plant response rating, Corn (corn (Zea mays); [12]): 20; Plant response rating, Ryegrass, Italian [4, 14]: 40; Plant response rating, Ryegrass, Italian [4, 16]: 40; Plant response rating, Kochia (kochia (Kochia scoparia); [14]): 50; Plant response rating, Kochia (kochia (Kochia scoparia); [16]): 30; Plant response rating, Pigweed [5, 14]: 40; Plant response rating, Pigweed [5, 16]: 80; Plant response rating, Wheat [6, 12]: 0; Plant response rating, Foxtail, Giant [7, 14]: 10; Plant response rating, Foxtail, Giant [7, 16]: 10; Plant response rating, Ragweed [8, 14]: 30; Plant response rating, Ragweed [8, 16]: 70
4 | COc1nn(C)c(=O)c(-c2c(C)sc3ccc(Cl)cc23)c1OC(C)=O [Compound 122] | 70 | 40 | 30 | 30 | 20 | 70 | 90 | 70 | 70 | 70 | 100 | 0 | 60 | 70 | 60 | 80 | 0 | 0 | 0 | 0 | Plant response rating, Galium [1, 18]: 60; Plant response rating, Blackgrass [2, 18]: 30; Plant response rating, Barnyardgrass [3, 19]: 20; Barnyardgrass plant response rating [3, 20]: 0; Plant response rating, Corn (corn (Zea mays); [18]): 0; Plant response rating, Ryegrass, Italian [4, 19]: 50; Ryegrass, Italian plant response rating [4, 20]: 70; Plant response rating, Kochia (kochia (Kochia scoparia); [19]): 40; Kochia plant response rating (kochia (Kochia scoparia); [20]): 30; Plant response rating, Pigweed [5, 19]: 30; Pigweed plant response rating [5, 20]: 100; Plant response rating, Wheat [6, 18]: 0; Plant response rating, Foxtail, Giant [7, 19]: 40; Foxtail, Giant plant response rating [7, 20]: 30; Plant response rating, Ragweed [8, 19]: 50
